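Method: 48-hour compound exposure of cells in 96-well plates, five concentrations, linear interpolation of endpoints. The concentration for 50% growth inhibition is given as GI50. The concentration for full growth arrest is given as TGI.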
Key:
Test in all cases: DTP human tumour cell line panel, 48 h
786-0 renal = system: 786-0 renal
A498 renal = system: A498 renal
A549 NSCLC = system: A549 NSCLC
ACHN renal = system: ACHN renal
CCRF-CEM leukemia = system: CCRF-CEM leukemia
COLO 205 colon = system: COLO 205 colon
DMS 273 small cell lung = system: DMS 273 small cell lung
HCC-2998 colon = system: HCC-2998 colon
HCT-116 colon = system: HCT-116 colon
HCT-15 colon = system: HCT-15 colon
HL-60(TB) leukemia = system: HL-60(TB) leukemia
HOP-62 NSCLC = system: HOP-62 NSCLC
HOP-92 NSCLC = system: HOP-92 NSCLC
HT29 colon = system: HT29 colon
IGROV1 ovarian = system: IGROV1 ovarian
K-562 leukemia = system: K-562 leukemia
KM12 colon = system: KM12 colon
KM20L2 colon = system: KM20L2 colon
LXFL 529 NSCLC = system: LXFL 529 NSCLC
M14 melanoma = system: M14 melanoma
M19-MEL melanoma = system: M19-MEL melanoma
MALME-3M melanoma = system: MALME-3M melanoma
MOLT-4 leukemia = system: MOLT-4 leukemia
NCI-H226 lung = system: NCI-H226 lung
NCI-H23 lung = system: NCI-H23 lung
NCI-H460 lung = system: NCI-H460 lung
NCI-H522 lung = system: NCI-H522 lung
OVCAR-3 ovarian = system: OVCAR-3 ovarian
OVCAR-4 ovarian = system: OVCAR-4 ovarian
OVCAR-8 ovarian = system: OVCAR-8 ovarian
RPMI-8226 leukemia = system: RPMI-8226 leukemia
RXF 393 renal = system: RXF 393 renal
SF-268 CNS = system: SF-268 CNS
SF-295 CNS = system: SF-295 CNS
SK-MEL-2 melanoma = system: SK-MEL-2 melanoma
SK-MEL-28 melanoma = system: SK-MEL-28 melanoma
SK-MEL-5 melanoma = system: SK-MEL-5 melanoma
SK-OV-3 ovarian = system: SK-OV-3 ovarian
SN12C renal = system: SN12C renal
SNB-19 CNS = system: SNB-19 CNS
SNB-75 CNS = system: SNB-75 CNS
SNB-78 CNS = system: SNB-78 CNS
SR leukemia = system: SR leukemia
SW-620 colon = system: SW-620 colon
UACC-62 melanoma = system: UACC-62 melanoma
UO-31 renal = system: UO-31 renal
BT-549 breast = system: BT-549 breast
CAKI-1 renal = system: CAKI-1 renal
DU-145 prostate = system: DU-145 prostate
EKVX NSCLC = system: EKVX NSCLC
HS 578T breast = system: HS 578T breast
LOX IMVI melanoma = system: LOX IMVI melanoma
MCF7 breast = system: MCF7 breast
MDA-MB-231 breast = system: MDA-MB-231 breast
MDA-MB-435 = system: MDA-MB-435
MDA-N = system: MDA-N
NCI/ADR-RES ovarian = system: NCI/ADR-RES ovarian
OVCAR-5 ovarian = system: OVCAR-5 ovarian
PC-3 prostate = system: PC-3 prostate
SF-539 CNS = system: SF-539 CNS
T-47D breast = system: T-47D breast
TK-10 renal = system: TK-10 renal
U251 CNS = system: U251 CNS
UACC-257 melanoma = system: UACC-257 melanoma

With `CC(=O)[O][Hg][c]1s[c]([Hg][O]C(C)=O)[c]([Hg][O]C(C)=O)[c]1[Hg][O]C(C)=O` the GI50 (786-0 renal) was 2480 nM, the TGI (786-0 renal) was 41.8 µM and the GI50 (A498 renal) was 20.1 µM. The TGI (A498 renal) was 35.1 µM, the GI50 (A549 NSCLC) was 55.8 µM and the TGI (A549 NSCLC) was > 100 µM. For the same compound, the GI50 (ACHN renal) was 19.3 µM, the TGI (ACHN renal) was > 100 µM and the GI50 (CCRF-CEM leukemia) was 1180 nM. The TGI (CCRF-CEM leukemia) was > 100 µM, the GI50 (COLO 205 colon) was 15.9 µM and the TGI (COLO 205 colon) was 38.6 µM. The GI50 (DMS 273 small cell lung) was 3.6 µM, the TGI (DMS 273 small cell lung) was > 100 µM and the GI50 (HCC-2998 colon) was 14.6 µM. The TGI (HCC-2998 colon) was 40.1 µM, the GI50 (HCT-116 colon) was 7.12 µM and the TGI (HCT-116 colon) was > 100 µM. It also gave a GI50 (HCT-15 colon) of 4.51 µM, a TGI (HCT-15 colon) of 30.4 µM and a GI50 (HL-60(TB) leukemia) of 5.12 µM. The TGI (HL-60(TB) leukemia) was > 100000 nM, the GI50 (HOP-62 NSCLC) was 4.91 µM and the TGI (HOP-62 NSCLC) was 16.5 µM. It also gave a GI50 (HOP-92 NSCLC) of 2920 nM, a TGI (HOP-92 NSCLC) of 5.88 µM and a GI50 (HT29 colon) of 19.5 µM. The TGI (HT29 colon) was > 100 µM, the GI50 (IGROV1 ovarian) was 3.61 µM and the TGI (IGROV1 ovarian) was 23.4 µM. The GI50 (K-562 leukemia) was 1300 nM, the TGI (K-562 leukemia) was 18.8 µM and the GI50 (KM12 colon) was 22.6 µM. The TGI (KM12 colon) was > 100 µM, the GI50 (KM20L2 colon) was 14.3 µM and the TGI (KM20L2 colon) was 37.3 µM. It also gave a GI50 (LXFL 529 NSCLC) of 1790 nM, a TGI (LXFL 529 NSCLC) of 9.72 µM and a GI50 (M14 melanoma) of 1980 nM. The TGI (M14 melanoma) was 14 µM, the GI50 (M19-MEL melanoma) was 3.99 µM and the TGI (M19-MEL melanoma) was > 100 µM. For the same compound, the GI50 (MALME-3M melanoma) was 3.16 µM, the TGI (MALME-3M melanoma) was 17.2 µM and the GI50 (MOLT-4 leukemia) was 2260 nM. For the same compound, the TGI (MOLT-4 leukemia) was 17.5 µM, the GI50 (NCI-H226 lung) was > 100 µM and the TGI (NCI-H226 lung) was > 100 µM. For the same compound, the GI50 (NCI-H23 lung) was 19.7 µM, the TGI (NCI-H23 lung) was > 100 µM and the GI50 (NCI-H460 lung) was 2350 nM. The TGI (NCI-H460 lung) was > 100 µM, the GI50 (NCI-H522 lung) was 2540 nM and the TGI (NCI-H522 lung) was > 100 µM. For the same compound, the GI50 (OVCAR-3 ovarian) was 21.4 µM, the TGI (OVCAR-3 ovarian) was > 100 µM and the GI50 (OVCAR-4 ovarian) was 12.7 µM. For the same compound, the TGI (OVCAR-4 ovarian) was 87.7 µM, the GI50 (OVCAR-8 ovarian) was 2930 nM and the TGI (OVCAR-8 ovarian) was > 100 µM. For the same compound, the GI50 (RPMI-8226 leukemia) was 7.54 µM, the TGI (RPMI-8226 leukemia) was > 100 µM and the GI50 (RXF 393 renal) was 13.1 µM. It also gave a TGI (RXF 393 renal) of 28.6 µM, a GI50 (SF-268 CNS) of 5.92 µM and a GI50 (SF-295 CNS) of 13.5 µM. It also gave a TGI (SF-295 CNS) of 40.1 µM, a GI50 (SK-MEL-2 melanoma) of 2190 nM and a GI50 (SK-MEL-28 melanoma) of 1180 nM. The TGI (SK-MEL-28 melanoma) was 5.52 µM, the GI50 (SK-MEL-5 melanoma) was 1240 nM and the TGI (SK-MEL-5 melanoma) was 3.12 µM. The GI50 (SK-OV-3 ovarian) was 2340 nM, the TGI (SK-OV-3 ovarian) was 9.2 µM and the GI50 (SN12C renal) was 8.33 µM. For the same compound, the TGI (SN12C renal) was > 100 µM, the GI50 (SNB-19 CNS) was 4.27 µM and the TGI (SNB-19 CNS) was 16.3 µM. For the same compound, the GI50 (SNB-75 CNS) was 4.91 µM, the TGI (SNB-75 CNS) was 25.4 µM and the GI50 (SNB-78 CNS) was 1420 nM. The GI50 (SR leukemia) was 2270 nM, the TGI (SR leukemia) was > 100 µM and the GI50 (SW-620 colon) was 6.51 µM. For the same compound, the GI50 (UACC-62 melanoma) was 6.47 µM, the TGI (UACC-62 melanoma) was 27.4 µM and the GI50 (UO-31 renal) was 4.61 µM.

For `O=C1Nc2ccccc2SC1=C(C(=O)c1ccccc1)C(=O)c1ccccc1`, the TGI (786-0 renal) was > 100 µM, the TGI (A498 renal) was > 80.3 µM and the TGI (A549 NSCLC) was > 100 µM. The TGI (ACHN renal) was > 100 µM, the TGI (BT-549 breast) was > 90.2 µM and the TGI (CAKI-1 renal) was > 100 µM. For the same compound, the TGI (CCRF-CEM leukemia) was 77.4 µM, the TGI (COLO 205 colon) was > 88 µM and the TGI (DU-145 prostate) was > 100 µM. The TGI (EKVX NSCLC) was > 100 µM, the TGI (HCC-2998 colon) was 63.8 µM and the TGI (HCT-116 colon) was > 100 µM. For the same compound, the TGI (HCT-15 colon) was > 100 µM, the TGI (HL-60(TB) leukemia) was 820 nM and the TGI (HOP-62 NSCLC) was > 100 µM. The TGI (HOP-92 NSCLC) was 99.9 µM, the TGI (HS 578T breast) was > 100 µM and the TGI (HT29 colon) was > 100 µM. For the same compound, the TGI (IGROV1 ovarian) was > 100 µM, the TGI (K-562 leukemia) was > 100 µM and the TGI (KM12 colon) was > 100 µM. For the same compound, the TGI (LOX IMVI melanoma) was > 100 µM, the TGI (M14 melanoma) was > 100 µM and the TGI (MALME-3M melanoma) was > 100 µM. The TGI (MCF7 breast) was > 100 µM, the TGI (MDA-MB-231 breast) was > 92.8 µM and the TGI (MDA-MB-435) was 55.6 µM. For the same compound, the TGI (MDA-N) was 48.8 µM, the TGI (NCI-H226 lung) was > 87.5 µM and the TGI (NCI-H23 lung) was > 90.8 µM. The TGI (NCI-H460 lung) was > 86.8 µM, the TGI (NCI-H522 lung) was 87.1 µM and the TGI (NCI/ADR-RES ovarian) was > 100 µM. The TGI (OVCAR-3 ovarian) was 41.5 µM, the TGI (OVCAR-4 ovarian) was > 100 µM and the TGI (OVCAR-5 ovarian) was > 91.1 µM. The TGI (OVCAR-8 ovarian) was > 100 µM, the TGI (PC-3 prostate) was > 100 µM and the TGI (RPMI-8226 leukemia) was > 100 µM. The TGI (RXF 393 renal) was > 100 µM, the TGI (SF-268 CNS) was > 100 µM and the TGI (SF-295 CNS) was 57.5 µM. The TGI (SF-539 CNS) was > 100 µM, the TGI (SK-MEL-2 melanoma) was 67.1 µM and the TGI (SK-MEL-28 melanoma) was > 100 µM. The TGI (SK-MEL-5 melanoma) was > 100 µM, the TGI (SK-OV-3 ovarian) was 65.3 µM and the TGI (SN12C renal) was > 89.8 µM. For the same compound, the TGI (SNB-19 CNS) was > 100 µM, the TGI (SNB-75 CNS) was > 94.6 µM and the TGI (SR leukemia) was > 100 µM. The TGI (SW-620 colon) was > 100 µM, the TGI (T-47D breast) was > 100 µM and the TGI (TK-10 renal) was > 100 µM. The TGI (U251 CNS) was > 100 µM, the TGI (UACC-257 melanoma) was > 88 µM and the TGI (UACC-62 melanoma) was 51.6 µM. For the same compound, the TGI (UO-31 renal) was > 100 µM.
